Results taken from paper PMC8222276 (Communications Biology, 2021).

How the values were obtained:
[1] = tested on: HUVECs; experiment: cell proliferation (72 h) of HUVECs; type: cell-based, human; conditions: HUVEC, 72 h
Experimental: (§1) Data are analysed using a three-parameter non-linear regression curve or the operational model of receptor agonism. g–h Signalling bias plots were calculated as ∆Log(τ/KA) (g) or ∆∆Log(τ/KA) (h) for each agonist and for each signalling pathway. […] Solid arrows indicate known pathways. Dashed arrows represent possible pathways.
Both endothelial cell lines and HCMs were seeded at a density of 2500 cells/well in a clear flat bottom 96-well plate (Corning, UK) and incubated at 37 °C in 5% CO2. After 24 h, cells were exposed to test compounds or vehicle, in complete endothelial cell growth media (HUVECs) or myocyte growth media (HCMs). Cells were incubated for a further 72 h at 37 °C in 5% CO2. After 72 h incubation, 5 μl of Cell Counting Kit–8 (CCK-8, Sigma, UK) was added to each well and cells were then incubated for another 2 h at 37 °C in 5% CO2 and in the dark[61]. The absorbance of each well was measured using a Mithras LB940 microplate reader with an excitation of 450 nm. The absorbance is directly proportional to the number of viable cells. Cell proliferation was calculated as a percentage of number of cells treated with vehicle alone.
(§2) All sample sizes were determined, and data analysed, in accordance with the guidelines described by Curtis M et al.[65]. All experiments were appropriately controlled using ‘system pathway’ agonists. If any of these pathway controls generated inappropriate responses, then the entire data set was removed from analysis. […] Data analysis for cAMP accumulation, Ca^2+i mobilisation, NO accumulation, pERK1/2 activation, and cell proliferation assays were performed in GraphPad Prism 8.4 (GraphPad Software, San Diego). Data were fitted to obtain concentration–response curves using either the three-parameter logistic equation using to obtain values of Emax and pEC50 or the operational model of agonism. Statistical differences were analysed using one-way ANOVA followed by Dunnett’s post-hoc (for comparisons amongst more than two groups) or unpaired Student’s t test with Welch’s correction (for comparison between two groups). To account for the day-to-day variation experienced from the cultured cells, we used the maximal level of cAMP accumulation from cells in response to 100 μM forskolin stimulation was used as a reference, 10 μM ionomycin for Ca^2+i assays, 10 μM phorbol 12-myristate 13-acetate (PMA) for pERK1/2 activation, 10 μM acetylcholine for NO production and 10 μM VEGF for cell proliferation. […] Where appropriate the operational model for receptor agonism[27] was used to obtain efficacy (τ) and equilibrium disassociation constant (KA) values. In both cases, this normalisation removes the variation due to differences in days but retains the variance for control values. The means of individual experiments were combined to generate the curves shown. Having obtained values for τ and KA these were then used to quantify signalling bias as the change in Log(τ/KA)[19],[28]. Error for this composite measure was propagated by applying Eq. 1.1 PooledSEM=(SEMA)^2+(SEMB)^2 Where, SEMA and SEMB are the standard error of measurement A and B.

[2] = target: T1, AM1 receptor (CLR-RAMP2) in HUVECs (Homo sapiens, UniProt O60895+Q16602); experiment: antagonism of agonist-induced cAMP accumulation in HUVECs; type: cell-based; conditions: HUVEC; 100 nM
T1 construct: HUVECs specifically express the AM1 receptor alone; host or cells: primary HUVECs
T1 sequence (Q16602 23-461): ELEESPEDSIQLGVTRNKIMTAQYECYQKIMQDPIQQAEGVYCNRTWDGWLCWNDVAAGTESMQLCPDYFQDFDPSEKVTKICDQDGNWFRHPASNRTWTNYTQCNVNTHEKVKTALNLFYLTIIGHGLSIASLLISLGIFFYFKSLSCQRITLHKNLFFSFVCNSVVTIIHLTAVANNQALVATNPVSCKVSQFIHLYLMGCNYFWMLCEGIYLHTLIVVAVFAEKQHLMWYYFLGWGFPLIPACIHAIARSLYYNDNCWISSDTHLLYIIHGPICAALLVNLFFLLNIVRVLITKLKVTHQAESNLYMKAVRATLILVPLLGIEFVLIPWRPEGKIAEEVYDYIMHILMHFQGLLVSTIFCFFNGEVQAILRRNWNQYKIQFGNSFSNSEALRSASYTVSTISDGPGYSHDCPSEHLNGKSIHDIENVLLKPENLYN
T1 sequence (O60895 43-175): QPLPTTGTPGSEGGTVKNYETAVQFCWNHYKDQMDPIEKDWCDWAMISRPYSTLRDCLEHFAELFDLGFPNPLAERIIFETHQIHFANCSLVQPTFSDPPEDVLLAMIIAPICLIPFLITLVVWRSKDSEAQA
Experimental: (§3) All primary cell lines were cultured as above. On the day of the experiment media was removed and cells washed with PBS, before being dissociated with Trypsin-EDTA 0.05% (Gibco, UK) and then resuspended in PBS/BSA (0.1%) (Sigma, UK). Cells were immediately plated for use in cAMP assay as per the manufacturer’s instructions, reagents used were provided by the LANCE® cAMP detection assay kit (PerkinElmer, Boston, MA, USA), in 384 well optiplates (PerkinElmer (Boston, MA, USA)) at 2000 cells/well in 5 μl aliquots. […] Cells were incubated with compound for 30 min prior to adding detection buffer[28],[60]. Plates were incubated for a further 60 min (room temperature) and then read on a plate reader (Mithras LB 940 microplate reader (Berthold technologies, Germany)). All responses were normalised to 100μM forskolin (Tocris, UK). Antagonist studies were performed in the same way through co-stimulation of the relevant concentration. Alongside control-treated cell. Experiments with PTX (Sigma, UK) required pretreatment (16 h) prior to assays.

[3] = target: T2, CGRP receptor (CLR-RAMP1) in human cardiomyocytes (HCMs) (Homo sapiens, UniProt O60894+Q16602); experiment: antagonism of agonist-induced cAMP accumulation in HCMs; type: cell-based; conditions: HCM; 100 nM
T2 construct: primary human cardiomyocytes (HCMs) since these cells only expressed CLR and RAMP1; host or cells: primary human cardiomyocytes (HCMs)
T2 sequence (Q16602 23-461): as the sequence (Q16602 23-461) above
T2 sequence (O60894 27-148): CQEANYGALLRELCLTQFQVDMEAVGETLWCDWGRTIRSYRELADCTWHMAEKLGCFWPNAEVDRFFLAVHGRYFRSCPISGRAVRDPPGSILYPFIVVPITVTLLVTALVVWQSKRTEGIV
Experimental: as §3

[4] = tested on: AM receptors; conditions: at concentrations of up to 10 micromolar; ref Doods et al., Br. J. Pharmacol., 129, (2000), pp. 420-423; cited from earlier work
[5] = target: T1, AM1 receptor (CLR-RAMP2) in HUVECs; experiment: cAMP accumulation in HUVECs; type: cell-based; conditions: HUVEC; calcitonin receptor agonists
Experimental: as §1
All primary cell lines were cultured as above. On the day of the experiment media was removed and cells washed with PBS, before being dissociated with Trypsin-EDTA 0.05% (Gibco, UK) and then resuspended in PBS/BSA (0.1%) (Sigma, UK). […] Plates were incubated for a further 60 min (room temperature) and then read on a plate reader (Mithras LB 940 microplate reader (Berthold technologies, Germany)). […]
(§4) All sample sizes were determined, and data analysed, in accordance with the guidelines described by Curtis M et al.[65]. […] Statistical differences were analysed using one-way ANOVA followed by Dunnett’s post-hoc (for comparisons amongst more than two groups) or unpaired Student’s t test with Welch’s correction (for comparison between two groups). […] Having obtained values for τ and KA these were then used to quantify signalling bias as the change in Log(τ/KA)[19],[28]. […]

[6] = target: T1, AM1 receptor (CLR-RAMP2) in HUVECs; experiment: total nitric oxide production in HUVECs; type: cell-based; conditions: HUVEC
Experimental: as §1
Endothelial cells and HCMs were cultured as above. 24 h prior to assay cells were plated on Costar 96-well black clear bottom plates at 40,000 cells/well. The assay was performed according to the manufacturer’s protocol. Briefly, cells pre-incubated with NO dye and assay buffer 1 (Fluorometric Nitric Oxide Assay Kit, Abcam, UK) for 30 min at 37 °C in 5% CO2. Any inhibitors requiring 30 min pre-treatment (YM/L-NAME/DMSO control) were added at this point. Ligand stimulation occurred immediately after this for 15 min at 37 °C in 5% CO2. Stain and ligand solution was removed, assay buffer II was added, and wells were read immediately. The absorbance was measured using a Tecan T200 (Thermo Fisher Scientific UK) reader with an excitation/emission of 540/590 nm. Endothelial cell responses were normalised to 10 μM acetylcholine. HCM responses were normalised to 10 μM isoproterenol[63],[64].
as §2

[7] = target: T1, AM1 receptor (CLR-RAMP2) in HUVECs; experiment: mobilisation of Ca2+i in HUVECs; type: cell-based; conditions: HUVEC; Gαq/11/14 inhibitor co-treatment, 100 nM
Experimental: as §1
All cell lines were plated at 20,000 cells/well on 96-well black clear-bottom plates (Costar, UK) 24 h before the experiment. […] Cells were then washed twice with calcium-free HBSS, then were left in 100 μl calcium-free HBSS for the duration of the assay. […] Data was normalised to the response seen with 10 μM Ionomycin.
as §4, with “al.[65]. All experiments were appropriately controlled using ‘system pathway’ agonists. If any of these pathway controls generated inappropriate responses, then the entire data set was removed from analysis.” for “al.[65].”

## C=C[C@@]1(C)CC(=O)[C@]2(O)[C@@]3(C)[C@@H](O)CCC(C)(C)[C@@H]3[C@H](O)[C@H](OC(C)=O)[C@@]2(C)O1 [forskolin]
[1]
  effect of forskolin on cell proliferation: concentration-dependent inhibition of cell proliferation

## NCCCC[C@H](NC(=O)[C@@H](Cc1cc(Br)c(O)c(Br)c1)NC(=O)N1CCC(N2Cc3ccccc3NC2=O)CC1)C(=O)N1CCN(c2ccncc2)CC1 [olcegepant]
[2]
  effect on agonist-induced cAMP accumulation: had little effect
[3]
  effect on cAMP accumulation for all three agonists: inhibit cAMP accumulation for all three agonists
[4]
  action on AM receptors: no actions on AM receptors

## amylin: calcitonin receptor agonist (KCNTATCATQRLANFLVHSSNNFGAILSSTNVGSNTY; Islet amyloid polypeptide; UniProt P10997 34-70, looked up)
[5]
  functional response: unable to detect the presence of its transcript (Fig. 1a) or obtain a functional response

## YM-254890
[6]
  effect of YM-254890 on NO release: abolished all NO release
[7]
  effect of YM-254890 on Ca2+i responses: all responses could be abolished

## calcitonin: calcitonin receptor agonist
[5]
  functional response: unable to detect the presence of its transcript (Fig. 1a) or obtain a functional response
